Reference: the supplement of paper PMC8092582
± gives the standard deviation of the averaged measurements.

Tested on: HeLa
Test: cell viability (CellTiter-Glo) relative to median of lowest-dilution wells of all drugs (fraction); higher = more viable cells
Procedure: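 HeLa control and CRISPR DDX11 knockout cells were seeded in 384-well plates and incubated for 72 h with each of 64 […] drugs at six concentrations. Viability was read with CellTiter-Glo and normalised to the median of the lowest (6th) dilution wells of all drugs. Two biological replicates (BR1, BR2) are averaged; the concentration unit is not stated.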

[1] = drug concentration (unit not stated): 0.01, genotype: DDX11 knockout
[2] = drug concentration (unit not stated): 0.01, genotype: control (DDX11 wild type)
[3] = drug concentration (unit not stated): 0.04, genotype: DDX11 knockout
[4] = drug concentration (unit not stated): 0.04, genotype: control (DDX11 wild type)
[5] = drug concentration (unit not stated): 0.12, genotype: DDX11 knockout
[6] = drug concentration (unit not stated): 0.12, genotype: control (DDX11 wild type)
[7] = drug concentration (unit not stated): 0.37, genotype: DDX11 knockout
[8] = drug concentration (unit not stated): 0.37, genotype: control (DDX11 wild type)
[9] = drug concentration (unit not stated): 1.11, genotype: DDX11 knockout
[10] = drug concentration (unit not stated): 1.11, genotype: control (DDX11 wild type)
[11] = drug concentration (unit not stated): 3.33, genotype: DDX11 knockout
[12] = drug concentration (unit not stated): 3.33, genotype: control (DDX11 wild type)
[13] = drug concentration (unit not stated): 10, genotype: DDX11 knockout
[14] = drug concentration (unit not stated): 10, genotype: control (DDX11 wild type)
[15] = drug concentration (unit not stated): 30, genotype: DDX11 knockout
[16] = drug concentration (unit not stated): 30, genotype: control (DDX11 wild type)

| Structure (SMILES) | cell viability [1] | cell viability [2] | cell viability [3] | cell viability [4] | cell viability [5] | cell viability [6] | cell viability [7] | cell viability [8] | cell viability [9] | cell viability [10] | cell viability [11] | cell viability [12] | cell viability [13] | cell viability [14] | cell viability [15] | cell viability [16] |
| --- | --- | --- | --- | --- | --- | --- | --- | --- | --- | --- | --- | --- | --- | --- | --- | --- |
| Nc1ccn([C@@H]2O[C@H](CO)[C@@H](O)[C@@H]2O)c(=O)n1 [Cytarabine] | 1.05 ± 0.017 | 1.02 ± 0.028 | 1 ± 0.016 | 1.02 ± 0.058 | 0.987 ± 0.12 | 1.02 ± 0.096 | 0.728 ± 0.11 | 0.994 ± 0.21 | 0.682 ± 0.14 | 0.907 ± 0.41 |  |  |  |  |  |  |
| NC(=O)c1ccc(I)c([N+](=O)[O-])c1 [Iniparib (BSI-201)] |  |  |  |  | 1.01 ± 0.022 | 0.996 ± 0.031 | 1.06 ± 0.0055 | 0.981 ± 0.077 | 1.03 ± 0.045 | 0.951 ± 0.08 | 0.996 ± 0.028 | 0.969 ± 0.12 | 1.02 ± 0.062 | 0.93 ± 0.17 | 0.839 ± 0.094 | 0.92546 ± 0.00092 |
| C[C@@H]1COCCN1c1cc(C2([S@](C)(=N)=O)CC2)nc(-c2cc[nH]c3nccc2-3)n1 [AZD6738] |  |  | 1.04 ± 0.026 | 1.04 ± 0.022 | 1.03 ± 0.046 | 1.03 ± 0.019 | 0.992 ± 0.045 | 0.971 ± 0.022 | 0.862 ± 0.0099 | 0.957 ± 0.13 | 0.648 ± 0.036 | 0.913 ± 0.29 | 0.366 ± 0.094 | 0.55 ± 0.24 |  |  |
| CC[C@H](CO)Nc1nc(NCc2ccccc2)c2ncn(C(C)C)c2n1 [Seliciclib (Roscovitine)] |  |  |  |  | 0.992 ± 0.018 | 0.946 ± 0.036 | 1.008 ± 0.0031 | 0.98 ± 0.018 | 1.04 ± 0.021 | 1 ± 0.033 | 1 ± 0.012 | 0.994 ± 0.038 | 1.01 ± 0.051 | 1.028 ± 0.008 | 0.577 ± 0.26 | 0.893 ± 0.38 |
| Nc1ncn([C@H]2C[C@H](O)[C@@H](CO)O2)c(=O)n1 [Decitabine] |  |  | 1.062 ± 0.0019 | 1.0513 ± 0.0006 | 1.01 ± 0.16 | 1.06 ± 0.019 | 1.03 ± 0.12 | 1.03 ± 0.043 | 0.973 ± 0.012 | 1.05 ± 0.054 | 0.975 ± 0.099 | 1.1 ± 0.097 | 0.867 ± 0.018 | 1.11 ± 0.086 |  |  |
| Nc1nc2[nH]cc(CCc3ccc(C(=O)N[C@@H](CCC(=O)O)C(=O)O)cc3)c2c(=O)[nH]1 [Pemetrexed] | 1 ± 0.099 | 0.99 ± 0.11 | 0.983 ± 0.29 | 0.903 ± 0.41 | 0.911 ± 0.26 | 0.98 ± 0.53 | 0.781 ± 0.21 | 0.814 ± 0.4 | 0.741 ± 0.18 | 0.756 ± 0.34 |  |  |  |  |  |  |
| Cc1sc2c(c1C)C(c1ccc(Cl)cc1)=N[C@@H](CC(=O)OC(C)(C)C)c1nnc(C)n1-2 [(+)-JQ-1] |  |  | 1.02 ± 0.059 | 0.977 ± 0.047 | 0.93 ± 0.14 | 0.962 ± 0.17 | 0.849 ± 0.19 | 0.98 ± 0.49 | 0.671 ± 0.033 | 0.827 ± 0.26 | 0.5507 ± 0.0013 | 0.757 ± 0.2 | 0.5098 ± 0.0035 | 0.637 ± 0.18 |  |  |
| O=C(CCCCCCC(=O)Nc1ccccc1)NO [Vorinostat (SAHA)] | 1.01 ± 0.075 | 1.03 ± 0.026 | 0.974 ± 0.013 | 0.9673 ± 0.0094 | 0.995 ± 0.052 | 0.971 ± 0.031 | 0.771 ± 0.18 | 0.825 ± 0.27 | 0.317 ± 0.41 | 0.44 ± 0.58 |  |  |  |  |  |  |
| O=c1[nH]cc(F)c(=O)[nH]1 [Adrucil (Fluorouracil)] |  |  | 1 ± 0.034 | 0.976 ± 0.016 | 1.03 ± 0.046 | 1 ± 0.031 | 1.06 ± 0.046 | 1.03 ± 0.032 | 1.01 ± 0.073 | 1.05 ± 0.23 | 0.928 ± 0.26 | 1.02 ± 0.45 | 0.817 ± 0.14 | 0.945 ± 0.37 |  |  |
| Cc1cc(Nc2cc(N3CCN(C)CC3)nc(Sc3ccc(NC(=O)C4CC4)cc3)n2)n[nH]1 [Tozasertib (VX-680)] |  |  |  |  | 0.959 ± 0.016 | 0.978 ± 0.1 | 0.951 ± 0.025 | 1.1 ± 0.2 | 0.976 ± 0.087 | 1.03 ± 0.22 | 0.912 ± 0.048 | 1.02 ± 0.23 | 0.823 ± 0.04 | 0.975 ± 0.22 | 0.659 ± 0.067 | 0.764 ± 0.19 |
